The series can be described thus: Human HepG2 cell viability assay in 384 well format. Format: toxicity, cell-based. The arrangement: dose 125 nL, time 70.5 hour; concentration not given beside the values. The settings on record: HepG2 cells, read-out: Inhibition.

We go through 99 molecules from ChEMBL document CHEMBL3507680, “University of Dundee, Gates Library screen for HepG2 cell viability”.

For the molecule `Fc1ccc(Sc2ccccc2CNC2=NCCN2)cc1`, the cytotoxicity at 70.5 h is -5.29%.

With `O=c1ncn(-c2ccccc2F)c2ncccc12`, the cytotoxicity at 70.5 h was -5.32%.

Consider `Fc1ccccc1Sc1ccccc1CNC1=NCCN1`, for which the cytotoxicity at 70.5 h is -0.773%.

Turning to `CCOC(=O)c1cnn(-c2cc(Oc3cccc(C)c3)ncn2)c1N`, the cytotoxicity at 70.5 h was -0.773%.

Turning to `NC(=O)Cn1cnc2nc3n(c2c1=O)CCC3`, the cytotoxicity at 70.5 h was 16.5%.

As to `CCC1CCc2c(c3ccccc3[nH]c2=O)O1` (centres undefined), the cytotoxicity at 70.5 h was 24.6%.

`CN(C(=O)c1cccc(C#N)c1)c1nnc(C2CCOC2)s1` (centres undefined): the cytotoxicity at 70.5 h is -7.42%.

For `CCn1cc(C(=O)Nc2ccccc2C(=O)OC)cn1`, the cytotoxicity at 70.5 h amounted to 13.1%.

On to `Cn1c(=O)c2c(c3ccccc31)OC(C)(C)CC2`, for which the cytotoxicity at 70.5 h was -9.34%.

As to `Cn1c(=O)[nH]c(=O)c2c1nc1n2CC(c2ccc(Cl)cc2)O1` (centres undefined), the cytotoxicity at 70.5 h stood at 43%.

For the molecule `Cc1cc(O)n(-c2ccccc2Cl)c(=O)c1C#N`, the cytotoxicity at 70.5 h is -0.226%.

On to `O=C(Nc1ccc(I)cc1C(=O)NCCN1CCOCC1)c1cccs1`, for which the cytotoxicity at 70.5 h was 11.1%.

Turning to `CC(=O)c1c(C)nn(S(=O)(=O)c2ccc(C)c(C)c2)c1C`, the cytotoxicity at 70.5 h was -0.468%.

Turning to `CC(=O)c1c(C)nn(S(=O)(=O)c2ccc(Cl)cc2)c1C`, the cytotoxicity at 70.5 h is 3.92%.

Consider `CCOC1Sc2nnc(C)n2N=C1c1ccc(Br)cc1` (centres undefined), for which the cytotoxicity at 70.5 h is -8.58%.

In the case of `CC(=O)c1c(O)n(C)c2ccc(C)cc12`, the cytotoxicity at 70.5 h came out at 1.11%.

As to `O=C(CCn1ccnc1)N1CC[C@H](Oc2cccc(F)c2)[C@@H](O)CC1`, the cytotoxicity at 70.5 h worked out at 28.5%.

In the case of `COc1cccc(O[C@H]2CCN(c3nc(C)cc(C)n3)CC[C@@H]2O)c1`, the cytotoxicity at 70.5 h amounted to 20.4%.

Take `O=C1CN([C@@H]2CC[C@@H](NS(=O)(=O)c3ccccc3F)[C@H]2O)CCN1`: the cytotoxicity at 70.5 h came out at 25.1%.

`Cn1ccc(C(=O)N2CCCC2c2cc[nH]n2)n1` (centres undefined): the cytotoxicity at 70.5 h worked out at 25.1%.

`Fc1ccccc1CN1CCC[C@H](Cn2nnc(-c3cccs3)n2)C1`: the cytotoxicity at 70.5 h is -0.999%.

As for `COc1ccccc1NC(=O)c1cnc(C2CCN(C(C)=O)C2)nc1C` (centres undefined), the cytotoxicity at 70.5 h was -1.01%.

Turning to `O=C1CN([C@@H]2CC[C@@H](NS(=O)(=O)c3ccc(F)cc3)[C@H]2O)CCN1`, the cytotoxicity at 70.5 h was 4.31%.

Take `CC(C)n1nccc1CN1Cc2nccn2CC1c1ccccc1` (centres undefined): the cytotoxicity at 70.5 h was -7.71%.

As to `CC(=O)N1CCC(Cc2ccc(-c3ccnn3C)nc2)CC1`, the cytotoxicity at 70.5 h is -7.13%.

For the molecule `CC(=O)N[C@@H]1CN(C(=O)c2cccc(C(F)(F)F)c2)C[C@H]1O`, the cytotoxicity at 70.5 h is -4.74%.

As for `CC1(c2ncc(CN3CCOCC3)cn2)CCCCO1` (centres undefined), the cytotoxicity at 70.5 h is -1.05%.

Consider `CC(C)c1cc(C(=O)N[C@@H]2CC[C@@H](Oc3ccccc3)[C@@H]2O)on1`, for which the cytotoxicity at 70.5 h was -3.21%.

Turning to `Cc1ccccc1S(=O)(=O)N[C@@H]1CC[C@@H](N2CCNC(=O)C2)[C@@H]1O`, the cytotoxicity at 70.5 h is -4.42%.

For the molecule `O=C(c1cnccn1)N1CCCC(C2=Nc3ccccc3S(=O)(=O)N2)C1` (centres undefined), the cytotoxicity at 70.5 h was -6.36%.

Consider `Cc1ccc(-c2noc(C3CCN3C(=O)c3ccn(C)n3)n2)s1` (centres undefined), for which the cytotoxicity at 70.5 h was determined as 1.02%.

As to `Cc1cccc(-c2nccnc2C2CCCN(C)C2)c1` (centres undefined), the cytotoxicity at 70.5 h is -2.49%.

Consider `COCC(=O)N1CCCC1(C(=O)N(C)C)c1cnccn1` (centres undefined), for which the cytotoxicity at 70.5 h was -4.12%.

`C=C(C)Cn1nc(C)c(CN2CCN(C3CCCCC3)C(=O)C2)c1C`: the cytotoxicity at 70.5 h came to 1.66%.

Turning to `Cc1nc(-c2ccnn2C)cc(C2CCCN(S(C)(=O)=O)C2)n1` (centres undefined), the cytotoxicity at 70.5 h was -6.24%.

As to `CNc1ccc(C2CN(c3nc(C)cc(C)n3)CCO2)nc1` (centres undefined), the cytotoxicity at 70.5 h is -2.83%.

Turning to `CC(=O)N1CCCC1CCc1ccnc(-c2cncnc2)c1` (centres undefined), the cytotoxicity at 70.5 h is -2.53%.

`CCOc1ccc(CN2CCOCC2c2[nH]ncc2C)cc1CO` (centres undefined): the cytotoxicity at 70.5 h is -2.3%.

`CNC(=O)C1(C)CN(S(=O)(=O)c2cccc(OC)c2)CCO1` (centres undefined): the cytotoxicity at 70.5 h amounted to 22.5%.

`O=C(Cn1cccn1)N1CCC(c2nnc(-c3ccsc3)o2)CC1`: the cytotoxicity at 70.5 h is -4.75%.

`CNc1ccc(C2CN(c3cc(C)nc(N)n3)CCO2)nc1` (centres undefined): the cytotoxicity at 70.5 h is -2.26%.

Regarding `CC1CCN(c2ncc(-c3ccccc3F)c(-c3nccn3C)n2)CC1`, the cytotoxicity at 70.5 h was -2.25%.

As to `CC(C)NC(=O)C1(Cc2ccccc2-c2cncnc2)CCCNC1` (centres undefined), the cytotoxicity at 70.5 h is -4.61%.

`COc1cccc(S(=O)(=O)N2CCOC(C)(C(N)=O)C2)c1` (centres undefined): the cytotoxicity at 70.5 h is -3.76%.

Regarding `Cc1nc2cc(C3CCOCC3)nn2c(NCC2COCCO2)c1C` (centres undefined), the cytotoxicity at 70.5 h stood at 20.9%.

Consider `O=C(c1cnco1)N1CCC(Cc2ccc3ncccc3c2)CC1`, for which the cytotoxicity at 70.5 h amounted to 5.02%.

In the case of `CN1CCc2nc(C3CCCN(S(=O)(=O)N4CCCC4)C3)ncc2C1` (centres undefined), the cytotoxicity at 70.5 h worked out at 0.156%.

With `CN(C)C(=O)c1cncnc1-c1ccc(CNC(=O)C2CC2)cc1`, the cytotoxicity at 70.5 h is -11.4%.

In the case of `CC(NC(=O)C1CC1)c1cc(O)nc(-c2cccnc2)n1` (centres undefined), the cytotoxicity at 70.5 h stood at 26.9%.

For `CS(=O)(=O)N1CCCCCC1c1cc(-c2ccc(F)cc2)no1` (centres undefined), the cytotoxicity at 70.5 h was determined as 5.67%.

As for `CN1C[C@]2(CC[C@@H](C(=O)O)CC2)Oc2ccccc2C1=O`, the cytotoxicity at 70.5 h is -6.54%.

Turning to `CCCC(=O)NCCc1nc2cc(-c3ccc(OC)cc3)ncn2n1`, the cytotoxicity at 70.5 h was -8.47%.

With `Cc1ccc(CN2CCOCC2c2[nH]ncc2C)cn1` (centres undefined), the cytotoxicity at 70.5 h was -7.81%.

Consider `Cc1cn[nH]c1C1COCCN1Cc1cscn1` (centres undefined), for which the cytotoxicity at 70.5 h is -13.2%.

Regarding `CC1(c2ncc(CN3CCN(c4ncccn4)CC3)cn2)CCCCO1` (centres undefined), the cytotoxicity at 70.5 h is -9.22%.

Take `COc1ccc(CCc2nnc(NC(=O)C3CC34CCC4)s2)cc1OC` (centres undefined): the cytotoxicity at 70.5 h was -8.17%.

On to `CCc1nnc(Nc2cc(C)nc(C3CN(C(C)=O)CCO3)c2)s1` (centres undefined), for which the cytotoxicity at 70.5 h came to 0.483%.

On to `CS(=O)(=O)N1CCCC1c1ccnc2nccn12` (centres undefined), for which the cytotoxicity at 70.5 h is -12.2%.

Take `Cc1noc(C)c1-c1cccc(C2CCN(S(=O)(=O)N(C)C)CC2)n1`: the cytotoxicity at 70.5 h was found to be 2.89%.

On to `Cc1ncc(C(=O)N2CCOC(C(=O)N3CCCCC3)C2)c(C)n1` (centres undefined), for which the cytotoxicity at 70.5 h is -3.05%.

Turning to `Cc1cccc(C2(CNC(=O)c3ccnc(N(C)C)c3)CCOCC2)c1`, the cytotoxicity at 70.5 h is 15.5%.

`Cc1onc(-c2ccncc2)c1C(=O)NC1CCCOC1` (centres undefined): the cytotoxicity at 70.5 h was -9.07%.

As for `CC(C)(C)C(=O)NCCc1cc(N2CCOCC2)nc(NC2CC2)n1`, the cytotoxicity at 70.5 h is -9.36%.

For the molecule `Cc1nonc1CNC(=O)C(C)Oc1cccc(F)c1` (centres undefined), the cytotoxicity at 70.5 h is -8.47%.

As to `c1cnc(Nc2ccc(C3CCCCN3Cc3ccncc3)cn2)nc1` (centres undefined), the cytotoxicity at 70.5 h is -6.32%.

On to `O=C(c1cscn1)N1CCc2[nH]nc(Nc3ccccc3)c2C1`, for which the cytotoxicity at 70.5 h was -6.3%.

On to `COCCNc1ccc(CC2CCCN(c3ncccn3)C2)nn1` (centres undefined), for which the cytotoxicity at 70.5 h was -1.21%.

Regarding `Cc1nc(NCc2cccnc2)cc(C2COCCN2)n1` (centres undefined), the cytotoxicity at 70.5 h was -5.63%.

With `Cc1cncc(C2CCN(Cc3ccncc3)CC2)n1`, the cytotoxicity at 70.5 h is -7.83%.

For the molecule `Cc1ccnc(C2(C)CCCN2S(=O)(=O)c2ccccc2)n1` (centres undefined), the cytotoxicity at 70.5 h is 16.3%.

Take `Cc1c(C(=O)N2CCC(C(=O)c3nc4ccccc4s3)CC2)cnn1C`: the cytotoxicity at 70.5 h is -0.714%.

`CN(C(=O)c1ccccn1)c1nnc(C2CCOC2)s1` (centres undefined): the cytotoxicity at 70.5 h is -7.71%.

`COc1cccc([C@@]2(O)CC[C@@H]3CN(C(=O)c4c[nH]nc4C)C[C@@H]32)c1`: the cytotoxicity at 70.5 h is -6.08%.

In the case of `Cc1nn(C)c(C)c1-c1ccc(=O)n(C(C)C(=O)NC2CC2)n1` (centres undefined), the cytotoxicity at 70.5 h stood at 17.4%.

Regarding `Cc1nn(C)c(C)c1-c1ccc(=O)n(C(C)C(=O)NC2CCCC2)n1` (centres undefined), the cytotoxicity at 70.5 h is -5.55%.

As for `Cc1nc2cc(-c3nccn3C)nn2c(N2CCCC2)c1C`, the cytotoxicity at 70.5 h was -0.486%.

`CCc1cc(O)n2nc(C3CCCN3C(=O)c3ccccn3)cc2n1` (centres undefined): the cytotoxicity at 70.5 h was 17%.

Regarding `COc1cc(CCC(=O)N2CCC(c3cc4ncccc4[nH]3)CC2)on1`, the cytotoxicity at 70.5 h was 22%.

Regarding `Cc1cc(N2CCC(O)CC2)nc(C2CCCN2C)n1` (centres undefined), the cytotoxicity at 70.5 h is -5.82%.

`Cn1ccc2cc(CC3COCCN(C(=O)c4cccnc4)C3)ccc21` (centres undefined): the cytotoxicity at 70.5 h stood at 11.9%.

For `O=C(Cn1c(=O)n(Cc2ccco2)c2ncccc21)NC1CC1`, the cytotoxicity at 70.5 h is -4.4%.

With `CC1CCCCN1c1nc2c(c(=O)[nH]1)CCN(Cc1ccccn1)C2` (centres undefined), the cytotoxicity at 70.5 h came to 3.45%.

`COc1cnc(C2(O)CCN(C(=O)c3ccccn3)CC2)c(OC)n1`: the cytotoxicity at 70.5 h is -13.1%.

For the molecule `COc1cnc(C2(O)CCN(C(=O)c3scnc3C)CC2)c(OC)n1`, the cytotoxicity at 70.5 h was found to be 6.58%.

For the molecule `CC(C)c1nccn1-c1cncc(C2CCCN(C3CCCCC3)C2)n1` (centres undefined), the cytotoxicity at 70.5 h is -0.366%.

As to `CCc1nccn1-c1cccc(C2CCCN(C3CCCCC3)C2)n1` (centres undefined), the cytotoxicity at 70.5 h is -0.595%.

As to `COCC(=O)N1CCN(c2cc(C)nc(C3CCCN3C(C)=O)c2)CC1` (centres undefined), the cytotoxicity at 70.5 h is -0.659%.

Turning to `Cc1nccn1-c1cccc(C2CCCN(C3CCCC3)C2)n1` (centres undefined), the cytotoxicity at 70.5 h is -4.43%.

Consider `Cc1cc2cc(C(=O)N3C[C@H](O)[C@]4(CCCO4)C3)ccc2o1`, for which the cytotoxicity at 70.5 h is -2.18%.

With `CCC(CO)NCc1ccc(-c2ccc(Cl)cc2)o1` (centres undefined), the cytotoxicity at 70.5 h turned out to be 7.49%.

For the molecule `c1nc(N2CCOCC2)sc1-c1cncn1CCCN1CCCCC1`, the cytotoxicity at 70.5 h was -4.2%.

Consider `Cc1nc(N)c2ccc(C3CCCCN3)nc2n1` (centres undefined), for which the cytotoxicity at 70.5 h is -1.97%.

Consider `c1nc(N2CCOCC2)ncc1-c1cncn1CCCN1CCCCC1`, for which the cytotoxicity at 70.5 h was -13.7%.

Turning to `NC1CCc2nc(-c3cccnc3)nc(Nc3ccc(F)cc3)c2C1` (centres undefined), the cytotoxicity at 70.5 h was found to be 3.41%.

As to `CC(=O)Nc1ccc(Oc2cc(C)nc(C3CCCNC3)c2)cc1` (centres undefined), the cytotoxicity at 70.5 h is -3.03%.

Consider `Cc1cc(Oc2ccc(NC(=O)C3CC3)cc2)cc(C2CCNCC2)n1`, for which the cytotoxicity at 70.5 h was -4.04%.

For the molecule `NCCc1cc(N2CCOCC2)nc(NC2CC2)n1`, the cytotoxicity at 70.5 h is -8.21%.

For the molecule `Cn1ccnc1CNC(=O)c1cncc(C2CCNCC2)n1`, the cytotoxicity at 70.5 h was -5.18%.

For `COc1ccccc1C(=O)N1CCCC1c1ncc2c(n1)CCNC2` (centres undefined), the cytotoxicity at 70.5 h was -2.07%.
